pIC50: −log10 of the molar value.
Target: T1, human PDE5 (Homo sapiens, UniProt O76074)
T1 construct: from tissue; host or cells: platelets from fresh blood of human donors (lysate, 10,000 g supernatant)
Test: Inhibition of the type 5 phosphodiesterase (PDE5) activity, modified SPA test with platelet lysate
Assay type: biochemical
Conditions: PDE5 from human platelet lysate, 0.5 μM cGMP
Summary of the method: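 Human platelet lysate (10,000 g supernatant) as PDE5 source in SPA with 0.5 μM cGMP plus [3H]cGMP tracer, pH 7.4, 5 mM Mg2+, 1 μM motapizone and 10 nM PDE2 inhibitor; 10–20% conversion. 5 min preincubation, 15 min at 37 °C, stopped with SPA beads/IBMX. IC50 by non-linear regression.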

Compound: COc1cc(OCC2CC2)c(-c2ncnc3c(C(=O)N[C@H]4CC[C@H](NC(C)=O)CC4)c[nH]c23)cc1F [Example 106, trans-4-(2-Cyclopropylmethoxy-5-fluoro-4-methoxy-phenyl)-5H-pyrrolo[3,2-d]pyrimidine-7-carboxylic acid (4-acetylamino-cyclohexyl)-amide]
- pIC50: 9.05

Compound: COCC(=O)N[C@H]1CC[C@H](NC(=O)c2c[nH]c3c(-c4cc(F)c(OC)cc4OCC4CC4)ncnc23)CC1 [Example 107, trans-4-(2-Cyclopropylmethoxy-5-fluoro-4-methoxy-phenyl)-5H-pyrrolo[3,2-d]pyrimidine-7-carboxylic acid [4-(2-methoxy-acetylamino)-cyclohexyl]-amide]
- pIC50: 9.27

Compound: COc1cc(OCC2CC2)c(-c2ncnc3c(C(=O)NC4CCN(C(C)=O)CC4)c[nH]c23)cc1F [Example 108, 4-(2-Cyclopropylmethoxy-5-fluoro-4-methoxy-phenyl)-5H-pyrrolo[3,2-d]pyrimidine-7-carboxylic acid (1-acetyl-piperidin-4-yl)-amide]
- pIC50: 9.18

Compound: COCC(=O)N1CCC(NC(=O)c2c[nH]c3c(-c4cc(F)c(OC)cc4OCC4CC4)ncnc23)CC1 [Example 109, 4-(2-Cyclopropylmethoxy-5-fluoro-4-methoxy-phenyl)-5H-pyrrolo[3,2-d]pyrimidine-7-carboxylic acid [1-(2-methoxy-ethanoyl)-piperidin-4-yl]amide]
- pIC50: 9.16

Compound: CCC(=O)N1CCC(NC(=O)c2c[nH]c3c(-c4cc(F)c(OC)cc4OCC4CC4)ncnc23)CC1 [Example 110, 4-(2-Cyclopropylmethoxy-5-fluoro-4-methoxy-phenyl)-5H-pyrrolo[3,2-d]pyrimidine-7-carboxylic acid (1-propionyl-piperidin-4-yl)-amide]
- pIC50: 9.67

Compound: CCC(=O)N1CCC[C@@H](NC(=O)c2c[nH]c3c(-c4cc(F)c(OC)cc4OCC4CC4)ncnc23)C1 [Example 111, 4-(2-Cyclopropylmethoxy-5-fluoro-4-methoxy-phenyl)-5H-pyrrolo[3,2-d]pyrimidine-7-carboxylic acid ((R)-1-propionyl-piperidin-3-yl)-amide]
- pIC50: 9.98

Compound: COCC(=O)N1CCC[C@@H](NC(=O)c2c[nH]c3c(-c4cc(F)c(OC)cc4OCC4CC4)ncnc23)C1 [Example 112, 4-(2-Cyclopropylmethoxy-5-fluoro-4-methoxy-phenyl)-5H-pyrrolo[3,2-d]pyrimidine-7-carboxylic acid [(R)-1-(2-methoxy-ethanoyl)-piperidin-3-yl]amide]
- pIC50: 9.86

Compound: COc1cc(OCC2CC2)c(-c2ncnc3c(C(=O)N[C@@H]4CCCN(C(C)=O)C4)c[nH]c23)cc1F [Example 113, 4-(2-Cyclopropylmethoxy-5-fluoro-4-methoxy-phenyl)-5H-pyrrolo[3,2-d]pyrimidine-7-carboxylic acid ((R)-1-acetyl-piperidin-3-yl)-amide]
- pIC50: 9.70

Compound: CCC(=O)N1CCC[C@H](NC(=O)c2c[nH]c3c(-c4cc(F)c(OC)cc4OCC4CC4)ncnc23)C1 [Example 114, 4-(2-Cyclopropylmethoxy-5-fluoro-4-methoxy-phenyl)-5H-pyrrolo[3,2-d]pyrimidine-7-carboxylic acid ((S)-1-propionyl-piperidin-3-yl)-amide]
- pIC50: 8.65

Compound: COCC(=O)N1CCC[C@H](NC(=O)c2c[nH]c3c(-c4cc(F)c(OC)cc4OCC4CC4)ncnc23)C1 [Example 115, 4-(2-Cyclopropylmethoxy-5-fluoro-4-methoxy-phenyl)-5H-pyrrolo[3,2-d]pyrimidine-7-carboxylic acid [(S)-1-(2-methoxy-ethanoyl)-piperidin-3-yl]amide]
- pIC50: 8.42

Compound: COc1cc(OCC2CC2)c(-c2ncnc3c(C(=O)N[C@H]4CCCN(C(C)=O)C4)c[nH]c23)cc1F [Example 116, 4-(2-Cyclopropylmethoxy-5-fluoro-4-methoxy-phenyl)-5H-pyrrolo[3,2-d]pyrimidine-7-carboxylic acid ((S)-1-acetyl-piperidin-3-yl)-amide]
- pIC50: 8.51

Compound: COc1cc(OCC2CC2)c(-c2ncnc3c(C(=O)N[C@@H]4CCN(C(C)=O)C4)c[nH]c23)cc1F [Example 117, 4-(2-Cyclopropylmethoxy-5-fluoro-4-methoxy-phenyl)-5H-pyrrolo[3,2-d]pyrimidine-7-carboxylic acid ((R)-1-acetyl-pyrrolidin-3-yl)-amide]
- pIC50: 8.96

Compound: CCC(=O)N1CC[C@@H](NC(=O)c2c[nH]c3c(-c4cc(F)c(OC)cc4OCC4CC4)ncnc23)C1 [Example 118, 4-(2-Cyclopropylmethoxy-5-fluoro-4-methoxy-phenyl)-5H-pyrrolo[3,2-d]pyrimidine-7-carboxylic acid ((R)-1-propionyl-pyrrolidin-3-yl)-amide]
- pIC50: 9.30

Compound: COCC(=O)N1CC[C@@H](NC(=O)c2c[nH]c3c(-c4cc(F)c(OC)cc4OCC4CC4)ncnc23)C1 [Example 119, 4-(2-Cyclopropylmethoxy-5-fluoro-4-methoxy-phenyl)-5H-pyrrolo[3,2-d]pyrimidine-7-carboxylic acid [(R)-1-(2-methoxy-acetyl)-pyrrolidin-3-yl]amide]
- pIC50: 8.92

Compound: CC(=O)N[C@H]1CC[C@H](NC(=O)c2c[nH]c3c(-c4cc(C)ccc4OCC4CC4)ncnc23)CC1 [Example 120, trans-4-(2-Cyclopropylmethoxy-5-methyl-phenyl)-5H-pyrrolo[3,2-d]pyrimidine-7-carboxylic acid (4-acetylamino-cyclohexyl)-amide]
- pIC50: 8.92

Compound: COCC(=O)N[C@H]1CC[C@H](NC(=O)c2c[nH]c3c(-c4cc(C)ccc4OCC4CC4)ncnc23)CC1 [Example 121, trans-4-(2-Cyclopropylmethoxy-5-methyl-phenyl)-5H-pyrrolo[3,2-d]pyrimidine-7-carboxylic acid [4-(2-methoxy-acetylamino)-cyclohexyl]-amide]
- pIC50: 8.75

Compound: CCOC(=O)N[C@H]1CC[C@H](NC(=O)c2c[nH]c3c(-c4cc(C)ccc4OCC4CC4)ncnc23)CC1 [Example 122, trans-(4-{[4-(2-Cyclopropylmethoxy-5-methyl-phenyl)-5H-pyrrolo[3,2-d]pyrimidine-7-carbonyl]-amino}-cyclohexyl)-carbamic acid ethyl ester]
- pIC50: 8.86

Compound: CC(=O)N1CCC(NC(=O)c2c[nH]c3c(-c4cc(C)ccc4OCC4CC4)ncnc23)CC1 [Example 123, 4-(2-Cyclopropylmethoxy-5-methyl-phenyl)-5H-pyrrolo[3,2-d]pyrimidine-7-carboxylic acid (1-acetyl-piperidin-4-yl)-amide]
- pIC50: 8.74

Compound: COCC(=O)N1CCC(NC(=O)c2c[nH]c3c(-c4cc(C)ccc4OCC4CC4)ncnc23)CC1 [Example 124, 4-(2-Cyclopropylmethoxy-5-methyl-phenyl)-5H-pyrrolo[3,2-d]pyrimidine-7-carboxylic acid [1-(2-methoxy-acetyl)piperidin-4-yl]-amide]
- pIC50: 8.66

Compound: CCOC(=O)N1CCC(NC(=O)c2c[nH]c3c(-c4cc(C)ccc4OCC4CC4)ncnc23)CC1 [Example 125, 4-{[4-(2-Cyclopropylmethoxy-5-methyl-phenyl)-5H-pyrrolo[3,2-d]pyrimidine-7-carbonyl]-amino}-piperidine-1-carboxylic acid ethyl ester]
- pIC50: 8.93

Compound: CC(=O)N[C@H]1CC[C@H](NC(=O)c2c[nH]c3c(-c4c(OCC5CCC5)ccc5c4OCO5)ncnc23)CC1 [Example 126, trans-4-(5-Cyclobutylmethoxy-benzo[1,3]dioxol-4-yl)-5H-pyrrolo[3,2-d]pyrimidine-7-carboxylic acid (4-acetylamino-cyclohexyl)-amide]
- pIC50: 9.33

Source: US8445501B2, “Substituted 7-carboxamido-pyrrolo[3,2-d]pyrimidines” (Takeda GmbH, priority 2008, dated 2013)
